Measured values as given in PMC8359193, “Summary of reference chemicals evaluated by the fish short‐term reproduction assay, OECD TG229, using Japanese Medaka, Oryzias latipes” (Journal of Applied Toxicology, 2021).
Entries after “also recorded” stand apart in the source; their conditions may differ.

How the values were obtained:
fathead minnow = test system: fathead minnow; parameters: method as in US EPA, 2007; settings: three participating laboratories; ref US EPA, 2007; cited from earlier work
medaka ARβ (mARβ) = medaka ARβ (mARβ) (Oryzias latipes, UniProt D1MV73); test: Medaka ARβ reporter gene assay (RGA), antagonist assay with 50 nM 11KT, HepG2 cells; type: cell-based, Japanese medaka (Oryzias latipes); settings: 50 nM 11KT-induced mARβ activity
Sequence of medaka ARβ (mARβ) (D1MV73 entry or part of it): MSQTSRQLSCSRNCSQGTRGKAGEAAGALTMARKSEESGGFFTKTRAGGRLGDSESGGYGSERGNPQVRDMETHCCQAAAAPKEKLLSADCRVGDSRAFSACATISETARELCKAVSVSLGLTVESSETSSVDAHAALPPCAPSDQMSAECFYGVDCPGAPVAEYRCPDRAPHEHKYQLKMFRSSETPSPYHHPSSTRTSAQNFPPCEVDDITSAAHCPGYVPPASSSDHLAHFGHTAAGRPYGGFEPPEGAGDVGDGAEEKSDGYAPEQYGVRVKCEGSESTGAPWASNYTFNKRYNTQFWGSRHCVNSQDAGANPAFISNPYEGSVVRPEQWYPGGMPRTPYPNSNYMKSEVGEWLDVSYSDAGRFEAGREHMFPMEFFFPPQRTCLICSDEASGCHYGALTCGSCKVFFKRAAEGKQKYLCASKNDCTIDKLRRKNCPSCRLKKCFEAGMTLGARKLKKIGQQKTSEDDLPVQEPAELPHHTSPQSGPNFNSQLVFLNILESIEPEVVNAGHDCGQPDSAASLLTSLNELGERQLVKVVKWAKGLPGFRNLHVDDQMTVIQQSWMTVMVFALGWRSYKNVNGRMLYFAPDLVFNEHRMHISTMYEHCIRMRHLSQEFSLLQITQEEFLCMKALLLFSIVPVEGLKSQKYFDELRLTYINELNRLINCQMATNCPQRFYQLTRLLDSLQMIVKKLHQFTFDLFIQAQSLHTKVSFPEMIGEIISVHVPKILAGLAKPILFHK
Procedure: To support interpretation of the biological effects observed in the FSTRA studies, in vitro RGAs using medaka Esr1 (mEsr1) and medaka ARβ (mARβ) were performed for the 16 test chemicals. In the present study, Esr1 and ARβ, which are ancestral subtypes among Esrs and ARs in Japanese medaka, were selected based on the phylogenetical analyses of Esr and AR with each receptor RGAs (Ogino et al., [2016], [2018]; Tohyama et al., [2015]).
The mARβ RGA in which the agonist and the antagonist assays were performed as same as the mEsr1 RGA was carried out according to the methods previously reported by Lange et al. ([2015]). For the assays, human liver cancer cell line, HepG2, was used as the host cells, and mARβ/pcDNA3.1, MMTV‐Luc, and pRL‐TK‐Rlu were used as mARβ expression vector, reporter vector, and internal control vector, respectively. Other materials and methods, for example, operating procedure, reagents, and incubation conditions, were almost the same as the mEsr1 RGA previously described beside that 11KT (Sigma‐Aldrich, purity 99.0%), a main AR ligand in fish, was competitively spiked at 50 nM into the test medium with test chemicals in antagonist assay. In the agonist and the antagonist assays, 11KT and 2‐hydroxyflutamide (2HFLT; Sigma‐Aldrich, purity 98.5%) were used as positive controls, respectively.
Effect concentrations, that is, EC50 (a half maximal effective concentration) in the agonist assay and IC50 (a half maximal inhibitory concentration) in the antagonist assay, were estimated by nonlinear curve fitting (e.g., three parameters logistic regression curve) using GraphPad Prism (GraphPad Software Inc., La Jolla, CA, USA).

[1] = test system: Japanese medaka (Oryzias latipes); test: Fish short-term reproduction assay (FSTRA, OECD TG229), 21-day flow-through exposure; settings: for Fertility rate (%) / Mortality (%) Female / Mortality (%) Male / Number of fertilized eggs / Number of total eggs / SSC Female / SSC Male / VTG (ng/mg of liver) Female / VTG (ng/mg of liver) Male: 21 days; for GSI Female / GSI Male / HSI Female / HSI Male / Length Female / Length Male / Weight Female / Weight Male: at completion of exposure
Method in brief: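 Run to OECD TG229: mature NIES-R medaka pairs (3♂/3♀ per vessel, 4 vessels per treatment plus dilution water control) were dosed by continuous flow-through for 21 days. Test concentrations were spaced 2- to 5-fold. Daily spawned eggs were counted under the microscope for fertilized versus unfertilized.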

Japanese medaka = settings: MMT, ref Flynn et al. (2017), cited from earlier work

## C=CC1(C)OC(=O)N(c2cc(Cl)cc(Cl)c2)C1=O (centres unmarked) [VCZ, Vinclozolin]
Fathead minnow
  nominal concentration with significant decrease in nuptial tubercle number in males: 900 µg/L
Medaka ARβ (mARβ)
  mARβ antagonist activity (in words): inhibited
[1]; 21-day exposure
  effect on fertility rate, in words: significant decrease; also recorded: significant reduction
[1]; measured conc. 14.5 μg/L
  Fertility rate (%): 95%
  Mortality (%) Female: 0%
  Mortality (%) Male: 0%
  Number of fertilized eggs: 22
  Number of total eggs: 24 ± 2.6 /female/day
  SSC Female: 0 ± 0
  SSC Male: 108 ± 18
  VTG (ng/mg of liver) Female: 886 ± 300 ng/mg of liver
  VTG (ng/mg of liver) Male: 7.5 ± 7.2 ng/mg of liver
  GSI Female: 11.8%
  GSI Male: 1.09%
  HSI Female: 4.6%
  HSI Male: 1.7%
  Length Female: 35.2 mm
  Length Male: 34.8 mm
  Weight Female: 447 mg
  Weight Male: 455 mg
[1]; measured conc. 43.9 μg/L
  Fertility rate (%): 94%
  Mortality (%) Female: 0%
  Mortality (%) Male: 0%
  Number of fertilized eggs: 22
  Number of total eggs: 23 ± 5.3 /female/day
  SSC Female: 0 ± 0
  SSC Male: 95 ± 16
  VTG (ng/mg of liver) Female: 816 ± 278 ng/mg of liver
  VTG (ng/mg of liver) Male: 10 ± 12 ng/mg of liver
  GSI Female: 10.7%
  GSI Male: 1.24%
  HSI Female: 4.7%
  HSI Male: 1.7%
  Length Female: 35.0 mm
  Length Male: 34.4 mm
  Weight Female: 445 mg
  Weight Male: 427 mg
[1]; measured conc. 137 μg/L
  Fertility rate (%): 90%
  Mortality (%) Female: 0%
  Mortality (%) Male: 0%
  Number of fertilized eggs: 19
  Number of total eggs: 21 ± 4.3 /female/day
  SSC Female: 0 ± 0
  SSC Male: 108 ± 16
  VTG (ng/mg of liver) Female: 651 ± 217 ng/mg of liver
  VTG (ng/mg of liver) Male: 3.6 ± 2.3 ng/mg of liver
  GSI Female: 10.6%
  GSI Male: 1.40%
  HSI Female: 4.5%
  HSI Male: 1.5%
  Length Female: 34.8 mm
  Length Male: 34.4 mm
  Weight Female: 437 mg
  Weight Male: 425 mg
[1]; measured conc. 453 μg/L
  Fertility rate (%): 84%
  Mortality (%) Female: 0%
  Mortality (%) Male: 0%
  Number of fertilized eggs: 17
  Number of total eggs: 20 ± 5.9 /female/day
  SSC Female: 0 ± 0
  SSC Male: 102 ± 17
  VTG (ng/mg of liver) Female: 111 ± 92 ng/mg of liver
  VTG (ng/mg of liver) Male: 3.9 ± 8.6 ng/mg of liver
  GSI Female: 12.0%
  GSI Male: 1.46%
  HSI Female: 4.7%
  HSI Male: 1.8%
  Length Female: 34.8 mm
  Length Male: 34.9 mm
  Weight Female: 455 mg
  Weight Male: 455 mg
[1]; within the test concentrations, 21-day exposure
  effect on fecundity (number of total eggs), in words: No effect
Japanese medaka
  LOEC on SSC in females: 33 µg/L
Japanese medaka; long-term exposure
  LOEC on reproduction (fecundity and/or fertility): 253 µg/L
